Laboratory results reported in US10183950B2, “Thienopyrimidine inhibitors of atypical protein kinase C” (Cancer Research Technology Limited, priority 2011, dated 2019).
Read-outs that look alike come from different tables or passages of the source.

Molecular target: T1, full-length human PKCι (Homo sapiens, UniProt P41743)
T1 construct: Recombinant, full-length human PKCι expressed in Sf21 insect cells is also commercially available; purchased; host or cells: Sf21 insect cells
T1 sequence (P41743 1-596): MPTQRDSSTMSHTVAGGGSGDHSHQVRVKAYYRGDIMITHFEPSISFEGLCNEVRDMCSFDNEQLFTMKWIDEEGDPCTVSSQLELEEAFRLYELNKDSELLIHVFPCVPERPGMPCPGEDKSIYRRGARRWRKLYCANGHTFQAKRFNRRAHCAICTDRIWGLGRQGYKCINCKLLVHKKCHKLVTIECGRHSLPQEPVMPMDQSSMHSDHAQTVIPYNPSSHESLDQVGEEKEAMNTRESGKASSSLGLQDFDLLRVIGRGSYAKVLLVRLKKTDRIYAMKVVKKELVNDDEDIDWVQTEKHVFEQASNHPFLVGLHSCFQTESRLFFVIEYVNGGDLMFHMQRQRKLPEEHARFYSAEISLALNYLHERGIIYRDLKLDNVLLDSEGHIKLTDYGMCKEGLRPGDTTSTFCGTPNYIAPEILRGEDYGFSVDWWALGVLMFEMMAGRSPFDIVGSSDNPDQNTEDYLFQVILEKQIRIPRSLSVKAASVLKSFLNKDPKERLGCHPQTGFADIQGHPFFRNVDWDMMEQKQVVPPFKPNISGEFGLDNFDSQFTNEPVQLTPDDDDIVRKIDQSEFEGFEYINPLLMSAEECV
Experiment: PKCι IC50 IMAP fluorescence polarisation assay, full-length enzyme
Assay type: biochemical

[1] = full length PKCi at 15 μM ATP, read-out: IC50 in IMAP assay against full length PKCi
[2] = full length PKCi at 15 μM ATP, read-out: IC50 in IMAP assay against full length PKCi (Activity)

Row | Structure (SMILES) | IC50 [1] | also measured
1 | c1cc(-c2nc(N[C@@H]3CCNC3)c3sccc3n2)cc(Nc2ccc(N3CCOCC3)cn2)n1 [compound 602, {2-[2-(5-Morpholin-4-yl-pyridin-2-ylamino)-pyridin-4-yl]-thieno[3,2-d]pyrimidin-4-yl}-(R)-pyrrolidin-3-yl-amine] | 100 to 1000 nM | –
2 | N[C@H](CNc1nc(-c2ccncc2)nc2c(CCC3CC3)csc12)Cc1ccccc1 [compound 563, (S)—N*1*-[7-(2-Cyclopropyl-ethyl)-2-pyridin-4-yl-thieno[3,2-d]pyrimidin-4-yl]-3-phenyl-propane-1,2-diamine] | 1000 to 10000 nM | –
3 | CN1CCN(c2ccc(Nc3cc(-c4nc(N[C@@H]5CCNC5)c5sccc5n4)ccn3)nc2)CC1 [compound 603, (2-{2-[5-(4-Methyl-piperazin-1-yl)-pyridin-2-ylamino]-pyridin-4-yl}-thieno[3,2-d]pyrimidin-4-yl)-(R)-pyrrolidin-3-yl-amine] | 100 to 1000 nM | –
4 | Cn1cc(-c2nc(NCCN)c3c4c(sc3n2)CCCC4)cn1 [compound 195, N*1*-[2-(1-Methyl-1H-pyrazol-4-yl)-5,6,7,8-tetrahydro-benzo[4,5]thieno[2,3-d]pyrimidin-4-yl]-ethane-1,2-diamine] | – | IC50 (enzyme form not given, no asterisk, read-out: Activity (IC50 printed as a bound, no asterisk)): > 60000 nM
5 | CC(C)(C)C#Cc1csc2c(NC[C@@H](N)Cc3ccccc3)nc(-c3ccncc3)nc12 [compound 511, (S)-N*1*-[7-(3,3-Dimethyl-but-1-ynyl)-2-pyridin-4-yl-thieno[3,2-d]pyrimidin-4-yl]-3-phenyl-propane-1,2-diamine] | 1000 to 10000 nM | –
6 | Brc1csc2c(N[C@@H]3CCNC3)nc(-c3ccncc3)nc12 [compound 351, (7-Bromo-2-pyridin-4-yl-thieno[3,2-d]pyrimidin-4-yl)-(R)-pyrrolidin-3-yl-amine] | < 100 nM | –
7 | N[C@H](CNc1nc(-c2ccncc2)nc2c(C#CCF)csc12)Cc1ccccc1 [compound 545, (S)-N*1*-[7-(3-Fluoro-prop-1-ynyl)-2-pyridin-4-yl-thieno[3,2-d]pyrimidin-4-yl]-3-phenyl-propane-1,2-diamine] | < 100 nM | –
8 | COc1ccc(C[C@H](N)CNc2nc(-c3ccncc3)nc3sc4c(c23)CCCC4)cc1 [compound 47, (S)-3-(4-Methoxy-phenyl)-N*1*-(2-pyridin-4-yl-5,6,7,8-tetrahydro-benzo[4,5]thieno[2,3-d]pyrimidin-4-yl)-propane-1,2-diamine] | – | IC50 [2]: 100 to 1000 nM
9 | c1cnc(Nc2cc(-c3nc(N[C@@H]4CCNC4)c4sccc4n3)ccn2)cn1 [compound 577, {2-[2-(Pyrazin-2-ylamino)-pyridin-4-yl]-thieno[3,2-d]pyrimidin-4-yl}-(R)-pyrrolidin-3-yl-amine] | 100 to 1000 nM | –
10 | COc1ccc(OC)c(-c2c(C)sc3c(NC[C@@H](N)Cc4ccccc4)nc(-c4ccncc4)nc23)c1 [compound 466, (S)-N*1*-[7-(2,5-Dimethoxy-phenyl)-6-methyl-2-pyridin-4-yl-thieno[3,2-d]pyrimidin-4-yl]-3-phenyl-propane-1,2-diamine] | 10000 to 40000 nM | –
11 | c1cc(-c2nc(N[C@@H]3CCNC3)c3sccc3n2)cc(Nc2ccc(CN3CCCC3)cc2)n1 [compound 611, (R)-Pyrrolidin-3-yl-{2-[2-(4-pyrrolidin-1-ylmethyl-phenylamino)-pyridin-4-yl]-thieno[3,2-]pyrimidin-4-yl}-amine] | 1000 to 10000 nM | –
12 | COc1cccc(Cl)c1-c1c(C)sc2c(NC[C@@H](N)Cc3ccccc3)nc(-c3ccncc3)nc12 [compound 453, (S)-N*1*-[7-(2-Chloro-6-methoxy-phenyl)-6-methyl-2-pyridin-4-yl-thieno[3,2-d]pyrimidin-4-yl]-3-phenyl-propane-1,2-diamine] | 10000 to 40000 nM | –
13 | Cc1cc(-c2csc3c(NC[C@@H](N)Cc4ccccc4)nc(-c4ccncc4)nc23)no1 [compound 568, (S)-N*1*-[7-(5-Methyl-isoxazol-3-yl)-2-pyridin-4-yl-thieno[3,2-d]pyrimidin-4-yl]-3-phenyl-propane-1,2-diamine] | 100 to 1000 nM | –
14 | N[C@H](CNc1nc(-c2ccncc2)nc2c(/C=C/C3CC3)csc12)Cc1ccccc1 [compound 405, (S)-N*1*-[7-((E)-2-Cyclopropyl-vinyl)-2-pyridin-4-yl-thieno[3,2-d]pyrimidin-4-yl]-3-phenyl-propane-1,2-diamine] | < 100 nM | –
15 | O=C(Nc1cc(-c2nc(N[C@@H]3CCNC3)c3sccc3n2)ccn1)[C@@H]1CCCO1 [compound 578, (S)-Tetrahydro-furan-2-carboxylic acid {4-[4-((R)-pyrrolidin-3-ylamino)-thieno[3,2-d]pyrimidin-2-yl]-pyridin-2-yl}-amide] | 100 to 1000 nM | –
16 | COc1ccccc1C[C@H](N)CNc1nc(-c2ccncc2)nc2sc3c(c12)CCSC3 [compound 64, (S)-3-(2-Methoxy-phenyl)-N*1*-(2-pyridin-4-yl-5,8-dihydro-6H-thio-pyrano[4′,3′:4,5]thieno[2,3-d]pyrimidin-4-yl)-propane-1,2-diamine] | – | IC50 [2]: 10000 to 40000 nM

Row | Structure (SMILES) | IC50 [1] | also measured
17 | C#Cc1sc2c(N[C@@H]3CCNC3)nc(-c3ccncc3)nc2c1C [compound 543, (6-Ethynyl-7-methyl-2-pyridin-4-yl-thieno[3,2-d]pyrimidin-4-yl)-(R)-pyrrolidin-3-yl-amine] | 1000 to 10000 nM | –
18 | Cc1sc2c(N[C@@H]3CCNC3)nc(-c3ccncc3)nc2c1C#CC(C)(C)O [compound 503, 2-Methyl-4-[6-methyl-2-pyridin-4-yl-4-((R)-pyrrolidin-3-ylamino)-thieno[3,2-d]pyrimidin-7-yl]-but-3-yn-2-ol] | 100 to 1000 nM | –
19 | Cc1sc2c(NCC(C)N)nc(-c3ccncc3)nc2c1Br (stereo in doubt) [compound 330, (R)-N*1*-(7-Bromo-6-methyl-2-pyridin-4-yl-thieno[3,2-d]pyrimidin-4-yl)-propane-1,2-diamine] | 1000 to 10000 nM | –
20 | N[C@H](CNc1nc(-c2ccncc2)nc2c(C#Cc3cscn3)csc12)Cc1ccccc1 [compound 548, (S)-3-Phenyl-N*1*-(2-pyridin-4-yl-7-thiazol-4-ylethynyl-thieno[3,2-d]pyrimidin-4-yl)-propane-1,2-diamine] | 100 to 1000 nM | –
21 | C[C@H](O)C#Cc1csc2c(NC[C@@H](N)Cc3ccccc3)nc(-c3ccncc3)nc12 [compound 533, (S)-4-[4-((S)-2-Amino-3-phenyl-propylamino)-2-pyridin-4-yl-thieno[3,2-d]pyrimidin-7-yl]-but-3-yn-2-ol] | < 100 nM | –
22 | C[C@H](N)CNc1nc(-c2ccncc2F)nc2ccsc12 [compound 353, (S)-N*1*-[2-(3-Fluoro-pyridin-4-yl)-thieno[3,2-d]pyrimidin-4-yl]-propane-1,2-diamine] | 10000 to 40000 nM | –
23 | N[C@H](CNc1nc(-c2ccncc2)nc2sc3c(c12)CCCC3)Cc1ccccc1F [compound 51, (S)-3-(2-Fluoro-phenyl)-N*1*-(2-pyridin-4-yl-5,6,7,8-tetrahydro-benzo[4,5]thieno[2,3-d]pyrimidin-4-yl)-propane-1,2-diamine] | – | IC50 [2]: 100 to 1000 nM
24 | c1cc(-c2nc(O[C@@H]3CCNC3)c3c4c(sc3n2)CCCC4)ccn1 [compound 139, 2-Pyridin-4-yl-4-((R)-pyrrolidin-3-yloxy)-5,6,7,8-tetrahydro-benzo[4,5]thieno[2,3-d]pyrimidine] | – | IC50 [2]: 1000 to 10000 nM
25 | N[C@H](CNc1nc(-c2ccncc2)nc2sc3c(c12)CCCC3)Cc1cscn1 [compound 59, (S)-N*1*-(2-Pyridin-4-yl-5,6,7,8-tetrahydro-benzo[4,5]thieno[2,3-d]pyrimidin-4-yl)-3-thiazol-4-yl-propane-1,2-diamine] | – | IC50 [2]: 100 to 1000 nM
26 | Nc1csc2c(NC[C@@H](N)Cc3ccccc3)nc(-c3ccncc3)nc12 [compound 566, N*4*-((S)-2-Amino-3-phenyl-propyl)-2-pyridin-4-yl-thieno[3,2-d]pyrimidine-4,7-diamine] | 100 to 1000 nM | –
27 | CN1CCN(c2ccc(C(=O)Nc3cc(-c4nc(N[C@@H]5CCNC5)c5sccc5n4)ccn3)cc2)CC1 [compound 620, 4-(4-Methyl-piperazin-1-yl)-N-{4-[4-((R)-pyrrolidin-3-ylamino)-thieno[3,2-d]pyrimidin-2-yl]-pyridin-2-yl}-benzamide] | 100 to 1000 nM | –
28 | CC(C)(C)C[C@H](N)CNc1nc(-c2ccncc2)nc2sc3c(c12)CCCC3 [compound 60, (S)-4,4-Dimethyl-N*1*-(2-pyridin-4-yl-5,6,7,8-tetrahydro-benzo[4,5]thieno[2,3-d]pyrimidin-4-yl)-pentane-1,2-diamine] | – | IC50 [2]: 1000 to 10000 nM
29 | C[C@H](O)C#Cc1csc2c(NC[C@@H](N)Cc3ccccc3)nc(-c3ccncc3F)nc12 [compound 508, (S)-4-[4-((S)-2-Amino-3-phenyl-propylamino)-2-(3-fluoro-pyridin-4-yl)-thieno[3,2-d]pyrimidin-7-yl]-but-3-yn-2-ol] | 100 to 1000 nM | –
30 | Cc1c(-c2ccn[nH]2)sc2c(N[C@@H]3CCNC3)nc(-c3ccncc3)nc12 [compound 389, [7-Methyl-6-(2H-pyrazol-3-yl)-2-pyridin-4-yl-thieno[3,2-d]pyrimidin-4-yl]-(R)-pyrrolidin-3-yl-amine] | 1000 to 10000 nM | –
31 | N[C@H](CNc1nc(-c2ccncc2)nc2c(Nc3ncccn3)csc12)Cc1ccccc1 [compound 488, N*4*-((S)-2-Amino-3-phenyl-propyl)-2-pyridin-4-yl-N*7*-pyrimidin-2-yl-thieno[3,2-d]pyrimidine-4,7-diamine] | 100 to 1000 nM | –
